Like-named read-outs stand apart in the source and are kept apart here.
Experiments:
D2/3R = test system: D2/3R; set-up: method as in PMID 24325578; details: cited from earlier work; for Striatal SBR % change relative to control condition, Raclopride / Striatal SBR, Raclopride: 10 μM raclopride; for Striatal SBR, Control: radioligand only
[1] = Ex vivo tissue uptake after the PET scan (gamma-counter); format: in vivo, Sprague-Dawley rats
Protocol: After the end of the PET scans (i.e., 98 ± 8 min after tracer injection), anesthetized animals were sacrificed by heart extirpation and dissected. Samples of brain and peripheral tissues were taken. All samples were weighed, and their radioactivity was measured in a gamma-counter.

[2] = [^18F]FBu-AMC13 0.2 nM, [^18F]FEt-AMC15 5.8 ± 1.6 nM
[3] = 100 μM GTP, [^18F]FBu-AMC13 0.2 nM, [^18F]FEt-AMC15 5.8 ± 1.6 nM
[4] = raclopride 1 mg/kg, after PET scan
[5] = saline, after PET scan (98 ± 8 min p.i.)

Oc1ccc2c(c1)O[C@@H](CNCc1ccc(OCCCC[18F])cc1)CC2 [[^18F]FBu-AMC13, (R)-2-[(4-(4-[^18F]fluorobutoxy)benzylamino)methyl]chroman-7-ol]
Striatal SBR % change relative to control condition, Raclopride (D2/3R; [2]): −88%
Striatal SBR, Raclopride (D2/3R; [2]): 0.10 ± 0.19
Striatal SBR % change relative to control condition, Raclopride (D2/3R; tracer 4.5 ± 3.6 nM): −79%
Striatal SBR, Raclopride (D2/3R; tracer 4.5 ± 3.6 nM): 0.04 ± 0.22
Striatal SBR % change relative to control condition, GTP (D2/3R; [3]): −76%
Striatal SBR, GTP (D2/3R; [3]): 0.20 ± 0.16
Striatal SBR, Control (D2/3R; [2]): 0.85 ± 0.23
Striatal SBR, Control (D2/3R; tracer 4.5 ± 3.6 nM): 0.19 ± 0.18
Ex vivo uptake, Adrenal glands ([1]; RAC): 32.1±3.6 SUV
Ex vivo uptake, Bladder ([1]; RAC): 0.59±0.26 SUV
Ex vivo uptake, Bone ([1]; RAC): 0.77±0.46 SUV
Ex vivo uptake, Bone marrow ([1]; RAC): 2.18±0.09 SUV
Ex vivo uptake, Duodenum ([1]; RAC): 2.70±1.37 SUV
Ex vivo uptake, Heart ([1]; RAC): 0.36±0.03 SUV
Ex vivo uptake, Kidney ([1]; RAC): 2.36±0.54 SUV
Ex vivo uptake, Large intestine ([1]; RAC): 0.46±0.19 SUV
Ex vivo uptake, Liver ([1]; RAC): 1.99±0.86 SUV
Ex vivo uptake, Lung ([1]; RAC): 4.26±1.02 SUV
Ex vivo uptake, Muscle ([1]; RAC): 0.27±0.02 SUV
Ex vivo uptake, Pancreas ([1]; RAC): 3.54±0.64 SUV
Ex vivo uptake, Plasma ([1]; RAC): 0.16±0.03 SUV
Ex vivo uptake, Prostate ([1]; RAC): 1.27±0.40 SUV
Ex vivo uptake, Small intestine ([1]; RAC): 3.21±3.67 SUV
Ex vivo uptake, Small intestine content ([1]; RAC): 11.0±11.4 SUV
Ex vivo uptake, Spleen ([1]; RAC): 2.14±0.20 SUV
Ex vivo uptake, Stomach ([1]; RAC): 2.19±0.67 SUV
Ex vivo uptake, Submandibular gland ([1]; RAC): 2.12±0.85 SUV
Ex vivo uptake, Thymus ([1]; RAC): 1.54±0.12 SUV
Ex vivo uptake, Urine ([1]; RAC): 1.51±0.95 SUV
Ex vivo uptake, Adrenal glands ([1]; SAL): 34.5±3.5 SUV
Ex vivo uptake, Bladder ([1]; SAL): 0.43±0.16 SUV
Ex vivo uptake, Bone ([1]; SAL): 0.73±0.47 SUV
Ex vivo uptake, Bone marrow ([1]; SAL): 2.31±1.19 SUV
Ex vivo uptake, Duodenum ([1]; SAL): 3.24±1.2 SUV
Ex vivo uptake, Heart ([1]; SAL): 0.50±0.25 SUV
Ex vivo uptake, Kidney ([1]; SAL): 3.24±0.69 SUV
Ex vivo uptake, Large intestine ([1]; SAL): 0.60±0.13 SUV
Ex vivo uptake, Liver ([1]; SAL): 1.49±0.15 SUV
Ex vivo uptake, Lung ([1]; SAL): 4.85±2.15 SUV
Ex vivo uptake, Muscle ([1]; SAL): 0.33±0.13 SUV
Ex vivo uptake, Pancreas ([1]; SAL): 3.78±0.41 SUV
Ex vivo uptake, Plasma ([1]; SAL): 0.15±0.02 SUV
Ex vivo uptake, Prostate ([1]; SAL): 0.95±0.17 SUV
Ex vivo uptake, Small intestine ([1]; SAL): 4.52±5.94 SUV
Ex vivo uptake, Small intestine content ([1]; SAL): 20.9±31.4 SUV
Ex vivo uptake, Spleen ([1]; SAL): 2.48±1.27 SUV
Ex vivo uptake, Stomach ([1]; SAL): 1.90±0.26 SUV
Ex vivo uptake, Submandibular gland ([1]; SAL): 2.01±0.53 SUV
Ex vivo uptake, Thymus ([1]; SAL): 2.04±0.27 SUV
Ex vivo uptake, Urine ([1]; SAL): 0.63±0.53 SUV
Ex vivo uptake, Brainstem [1, 4]: 1.25 ± 0.14 SUV
Ex vivo uptake, Cerebellum [1, 4]: 0.73 ± 0.08 SUV
Ex vivo uptake, Cortex [1, 4]: 1.01 ± 0.11 SUV
Ex vivo uptake, Hippocampus [1, 4]: 1.21 ± 0.06 SUV
Ex vivo uptake, Mean brain uptake [1, 4]: 1.03 ± 0.11 SUV
Ex vivo uptake, Olfactory bulbs [1, 4]: 0.86 ± 0.09 SUV
Ex vivo uptake, Parietal bone [1, 4]: 0.70 ± 0.18 SUV
Ex vivo uptake, Pituitary [1, 4]: 2.72 ± 0.77 SUV
Ex vivo uptake, Rest of brain [1, 4]: 1.10 ± 0.17 SUV
Ex vivo uptake, Striatum [1, 4]: 1.21 ± 0.14 SUV
Ex vivo uptake, Thalamus + hypothalamus [1, 4]: 1.07 ± 0.10 SUV
Ex vivo uptake, Brainstem ([1]; saline, after PET scan): 1.97 ± 0.42 (2) SUV
Ex vivo uptake, Cerebellum ([1]; saline, after PET scan): 1.11 ± 0.29 (8) SUV
Ex vivo uptake, Cortex ([1]; saline, after PET scan): 1.50 ± 0.32 (7) SUV
Ex vivo uptake, Hippocampus ([1]; saline, after PET scan): 1.50 ± 0.25 (6) SUV
Ex vivo uptake, Mean brain uptake ([1]; saline, after PET scan): 1.56 ± 0.33 SUV
Ex vivo uptake, Olfactory bulbs ([1]; saline, after PET scan): 1.85 ± 0.64 (3) SUV
Ex vivo uptake, Parietal bone ([1]; saline, after PET scan): 0.61 ± 0.17 SUV
Ex vivo uptake, Pituitary ([1]; saline, after PET scan): 3.19 ± 0.29 SUV
Ex vivo uptake, Rest of brain ([1]; saline, after PET scan): 1.60 ± 0.25 (4) SUV
Ex vivo uptake, Thalamus + hypothalamus ([1]; saline, after PET scan): 2.07 ± 0.70 (1) SUV
Ex vivo uptake, Striatum [1, 5]: 1.60 ± 0.33 (5) SUV

Oc1ccc2c(c1)O[C@@H](CNCc1ccc(OCC[18F])cc1)CC2 [[^18F]FEt-AMC13]
Striatal SBR based on after-scan biodistribution measurements ([1]; 1 mg/kg raclopride): 0.74 ± 0.27
decrease of biodistribution-based striatal SBR ([1]; 1 mg/kg raclopride, p = 0.17): 31%
Ex vivo uptake, Adipose tissue ([1]; RAC): 0.09±0.02 SUV
Ex vivo uptake, Adrenal glands ([1]; RAC): 0.59±0.20 SUV
Ex vivo uptake, Bladder ([1]; RAC): 0.83±0.64 SUV
Ex vivo uptake, Blood cells ([1]; RAC): 0.06±0.01 SUV
Ex vivo uptake, Bone ([1]; RAC): 0.17±0.05 SUV
Ex vivo uptake, Bone marrow ([1]; RAC): 2.00±3.17 SUV
Ex vivo uptake, Caecum ([1]; RAC): 0.63±0.84 SUV
Ex vivo uptake, Duodenum ([1]; RAC): 4.01±4.63 SUV
Ex vivo uptake, Heart ([1]; RAC): 0.16±0.02 SUV
Ex vivo uptake, Kidney ([1]; RAC): 0.48±0.07 SUV
Ex vivo uptake, Large intestine ([1]; RAC): 0.41±0.33 SUV
Ex vivo uptake, Large intestine content ([1]; RAC): 0.09±0.12 SUV
Ex vivo uptake, Liver ([1]; RAC): 1.43±0.30 SUV
Ex vivo uptake, Lung ([1]; RAC): 1.38±0.20 SUV
Ex vivo uptake, Muscle ([1]; RAC): 0.19±0.05 SUV
Ex vivo uptake, Pancreas ([1]; RAC): 1.47±0.32 SUV
Ex vivo uptake, Plasma ([1]; RAC): 0.23±0.01 SUV
Ex vivo uptake, Prostate ([1]; RAC): 0.40±0.26 SUV
Ex vivo uptake, Small intestine ([1]; RAC): 2.39±1.94 SUV
Ex vivo uptake, Small intestine content ([1]; RAC): 24.6±32.8 SUV
Ex vivo uptake, Spleen ([1]; RAC): 0.52±0.10 SUV
Ex vivo uptake, Stomach ([1]; RAC): 2.09±1.19 SUV
Ex vivo uptake, Submandibular gland ([1]; RAC): 0.28±0.06 SUV
Ex vivo uptake, Testes ([1]; RAC): 0.42±0.10 SUV
Ex vivo uptake, Thymus ([1]; RAC): 0.30±0.06 SUV
Ex vivo uptake, Urine ([1]; RAC): 4.40±3.88 SUV
Ex vivo uptake, Whole blood ([1]; RAC): 0.17±0.01 SUV
Ex vivo uptake, Adipose tissue ([1]; SAL): 0.30±0.42 SUV
Ex vivo uptake, Adrenal glands ([1]; SAL): 0.84±0.29 SUV
Ex vivo uptake, Bladder ([1]; SAL): 1.00±0.52 SUV
Ex vivo uptake, Blood cells ([1]; SAL): 0.07±0.01 SUV
Ex vivo uptake, Bone ([1]; SAL): 0.24±0.21 SUV
Ex vivo uptake, Bone marrow ([1]; SAL): 0.68±0.38 SUV
Ex vivo uptake, Caecum ([1]; SAL): 0.46±0.29 SUV
Ex vivo uptake, Duodenum ([1]; SAL): 1.15±0.25 SUV
Ex vivo uptake, Heart ([1]; SAL): 0.15±0.04 SUV
Ex vivo uptake, Kidney ([1]; SAL): 0.64±0.20 SUV
Ex vivo uptake, Large intestine ([1]; SAL): 0.57±0.36 SUV
Ex vivo uptake, Large intestine content ([1]; SAL): 0.06±0.03 SUV
Ex vivo uptake, Liver ([1]; SAL): 1.51±0.14 SUV
Ex vivo uptake, Lung ([1]; SAL): 1.67±0.41 SUV
Ex vivo uptake, Muscle ([1]; SAL): 0.17±0.04 SUV
Ex vivo uptake, Pancreas ([1]; SAL): 1.31±0.31 SUV
Ex vivo uptake, Plasma ([1]; SAL): 0.22±0.04 SUV
Ex vivo uptake, Prostate ([1]; SAL): 0.62±0.18 SUV
Ex vivo uptake, Small intestine ([1]; SAL): 3.15±2.00 SUV
Ex vivo uptake, Small intestine content ([1]; SAL): 54.2±57.7 SUV
Ex vivo uptake, Spleen ([1]; SAL): 0.46±0.05 SUV
Ex vivo uptake, Stomach ([1]; SAL): 1.36±0.35 SUV
Ex vivo uptake, Submandibular gland ([1]; SAL): 0.36±0.12 SUV
Ex vivo uptake, Testes ([1]; SAL): 0.40±0.06 SUV
Ex vivo uptake, Thymus ([1]; SAL): 0.32±0.06 SUV
Ex vivo uptake, Urine ([1]; SAL): 11.0±9.5 SUV
Ex vivo uptake, Whole blood ([1]; SAL): 0.16±0.03 SUV
Ex vivo uptake, Brainstem [1, 4]: 0.16 ± 0.04 SUV
Ex vivo uptake, Cerebellum [1, 4]: 0.13 ± 0.02 SUV
Ex vivo uptake, Cortex [1, 4]: 0.16 ± 0.04 SUV
Ex vivo uptake, Hippocampus [1, 4]: 0.23 ± 0.08 SUV
Ex vivo uptake, Mean brain uptake [1, 4]: 0.16 ± 0.04 SUV
Ex vivo uptake, Olfactory bulbs [1, 4]: 0.15 ± 0.04 SUV
Ex vivo uptake, Parietal bone [1, 4]: 0.10 ± 0.01 SUV
Ex vivo uptake, Pituitary [1, 4]: 0.59 ± 0.20 SUV
Ex vivo uptake, Rest of brain [1, 4]: 0.18 ± 0.03 SUV
Ex vivo uptake, Striatum [1, 4]: 0.23 ± 0.08 SUV
Ex vivo uptake, Thalamus + hypothalamus [1, 4]: 0.19 ± 0.05 SUV
Striatal SBR based on after-scan biodistribution measurements ([1]; saline pre-treated): 1.07 ± 0.10
Ex vivo uptake, Brainstem ([1]; saline, after PET scan): 0.18 ± 0.02 (6) SUV
Ex vivo uptake, Cerebellum ([1]; saline, after PET scan): 0.13 ± 0.01 (8) SUV
Ex vivo uptake, Cortex ([1]; saline, after PET scan): 0.18 ± 0.01 (5) SUV
Ex vivo uptake, Hippocampus ([1]; saline, after PET scan): 0.22 ± 0.02 (2) SUV
Ex vivo uptake, Mean brain uptake ([1]; saline, after PET scan): 0.18 ± 0.01 SUV
Ex vivo uptake, Olfactory bulbs ([1]; saline, after PET scan): 0.17 ± 0.01 (7) SUV
Ex vivo uptake, Parietal bone ([1]; saline, after PET scan): 0.10 ± 0.01 SUV
Ex vivo uptake, Pituitary ([1]; saline, after PET scan): 0.76 ± 0.08 SUV
Ex vivo uptake, Rest of brain ([1]; saline, after PET scan): 0.20 ± 0.02 (3) SUV
Ex vivo uptake, Thalamus + hypothalamus ([1]; saline, after PET scan): 0.19 ± 0.003 (4) SUV
Ex vivo uptake, Striatum [1, 5]: 0.28 ± 0.03 (1) SUV
